Data from patent US4328134A, “Anorexigenic peptides” (priority 1980, dated 1982).

How the values were obtained:
mice [1] = details: mice fasted for 17 hours; cited from earlier work
dogs = assay: sham-feeding in dogs with esophageal, gastric and pancreatic fistulae: gastric and pancreatic secretion
mice [2] = details: cited from earlier work
[3] = in vivo; cited from earlier work

**Q.** For O=C[C@H](O)[C@@H](O)[C@H](O)[C@H](O)CO [glucose], which “effect on food intake” value (mice [1]) is on record?
**A.** Its value is “ineffective”.

**Q.** With NCCc1c[nH]cn1 [histamine] as the compound, how does the maximal acid output (dogs; 320 mcg/kg/hour of histamine) read?
**A.** The maximal acid output was 13.55±1.8 mEq/15 mins.

**Q.** With “H-(pyro)-Glu-His-GlyOH [appetite-retarding peptide]” as the compound, how does the “body weight, minimum” value (mice [2]; 12 nmole daily for 20 days, dropped from a mean of 35 g) read?
**A.** Its value is 24 g.

**Q.** And the food consumption (mice [2]; 12 nmole injected daily for 20 days, reduced from 5.7)?
**A.** Its food consumption is 3.0 g per day.

**Q.** What about the “duration of reduced food consumption” value (mice [2]; 12 nmole injected daily for 20 days) of the same compound?
**A.** Its value is “about 6 months”.

**Q.** What about the “acute effect on blood glucose” value [3] of the same compound?
**A.** The value was “no acute effect”.

**Q.** And the “acute effect on serum insulin levels” value [3]?
**A.** Its value is “no acute effect”.

**Q.** For “bovine serum albumin: bovine serum albumin”, which “effect on food intake” value (mice [1]) is on record?
**A.** The value was “ineffective”.

**Q.** For caerulein, which “maximal pancreatic protein secretion” value (dogs; 0.5 mcg/kg/hour of caerulein) is on record?
**A.** The value was 650±86 mg/15 mins.

**Q.** With glucagon as the compound, how does the “effect on food intake” value (mice [1]) read?
**A.** The value was “ineffective”.

**Q.** For secretin, which “effect on food intake” value (mice [1]) is on record?
**A.** Its value is “ineffective”.
